Source: PMC10149208, “A validated HPLC-MS/MS method for simultaneously analyzing curcumin, demethoxycurcumin, bisdemethoxycurcumin, tetra-hydrocurcumin and piperine in human plasma, urine or feces” (Heliyon, 2023)

What was measured:
[1] = Stability of QC samples in plasma during storage in different conditions; format: in vitro ADME, human
SW620 cells = tested on: SW620 cells; design: method as in PMID 33812170; conditions: 10 μM, incubated for 2 days; cited from earlier work
[2] = Freeze-thaw stability of QC stock solution in DMSO; format: physicochemical; conditions: stock 10 μM in DMSO at −20 °C
Experimental: Freeze-thaw stability of QC stock solution 10 μM at −20 °C was performed with stock solution that had underwent 0, 1 and 10 freeze-thaw cycles. Three samples per freeze-thaw cycle in MeOH:H2O 60%:40% were prepared at 100 nM and measured in duplicate. Four QC samples per concentration were prepared in plasma. Four replicates per sample were frozen for 60 min at −20 °C. All samples were thawed at room temperature and frozen ones (cycle 1). Per four replicates and concentrations the samples were thawed and frozen further a second, third or fourth time. All samples were thawed at the same time for simultaneous assessment with a calibration curve.

pancreatic cancer = tested on: pancreatic cancer; design: method as in PMID 18628464; conditions: Phase II; cited from earlier work
[3] = 48-h feces concentration after single oral intake of curcuminoid capsules; format: in vivo, human; conditions: 4 capsules containing 600 mg curcuminoids
Experimental: (§1) One mL TBME was added to the mixture. Feces samples were first diluted 10.000x (four steps of 1:10 dilution) with Bovine Serum Albumin (BSA) 2% in Milli-Q water to reduce matrix effects before 50 μL IS-mix 100uM was added to 100 μL feces dilution. A second 100 μL sample with IS solution was hydrolyzed with 50 μL 20 U/μl β-glucuronidase, vortexed and after this addition incubated for 1 h at 37 °C. Following 1 mL TBME was added. After shaking for 15 min at 480 rpm/min all samples were centrifuged at 18213×g during 1 min. The lower aqueous layer was frozen on dry-iced ethanol and the upper organic layer of approximately 1 mL was decanted into a fresh tube and dried under vacuum using a Speedvac at room temperature. Next, samples were reconstituted with 100 μL MeOH:H2O 60%:40%, vortexed and sonicated for 5 min. After centrifuge at 18213×g during 3 min the supernatant was ready for injection into the HPLC-MS/MS.
(§2) Data from three healthy male participants included from a study researching the bioavailability of curcumin formulations is presented to show the applicability of the method in real-life settings. The participants signed informed consent and followed diet restrictions to avoid any curcumin or piperine intake five days before the visit day to ensure that only curcumin and/or piperine from the curcumin capsules were observed. On the visit day a plasma concentration curve at t = 0, 0.25, 0.50, 0.75, 1, 1.5, 2, 4, 8 and 24 h, collection of 24-h urine and 48-h feces were taken after single oral intake of 4 commercially available soft capsules containing 600 mg curcuminoids (curcumin, demethoxycurcumin and bisdemethoxycurcumin with 95% purity). The trial has been approved by the local institutional ethics committee and has been registered in the Dutch Clinical Trial Register under registration number NL6552. Each individual sample was analyzed according to the method described above.

[4] = tested on: retinal pigmented epithelial cells and retinal endothelial cells; design: method as in PMID 30013474; conditions: 10 μM; cited from earlier work
[5] = 24-h urine concentration after single oral intake of curcuminoid capsules; format: in vivo, human; conditions: three participants, 4 capsules containing 600 mg curcuminoids, versus untreated sample
Experimental: as §1, §2

[6] = Plasma concentration curve after single oral intake of curcuminoid capsules; format: in vivo, human; conditions: three participants, 4 capsules containing 600 mg curcuminoids, versus untreated sample
Experimental: as §1, §2

[7] = design: method as in PMID 9619120; conditions: rats; addition of 20 mg/kg piperine; cited from earlier work
[8] = QC 10, Room temperature - light
[9] = QC 50, Room temperature - light
[10] = QC 100, Room temperature - dark
[11] = QC 100, Room temperature - light

| Compound | Stability sample during storage ([1]; QC 10, AS (reference)) [%] | Stability sample during storage ([1]; QC 10, On ice - dark) [%] | Stability sample during storage ([1]; QC 10, Room temperature - dark) [%] | Stability sample during storage [1, 8] [%] | Stability sample during storage ([1]; QC 50, AS (reference)) [%] | Stability sample during storage ([1]; QC 50, On ice - dark) [%] | Stability sample during storage ([1]; QC 50, Room temperature - dark) [%] | Stability sample during storage [1, 9] [%] | Stability sample during storage ([1]; QC 100, AS (reference)) [%] | Stability sample during storage ([1]; QC 100, On ice - dark) [%] | Stability sample during storage [1, 10] [%] | Stability sample during storage [1, 11] [%] | Freeze-thaw stability, concentration relative to nominal ([2]; QC 100 nM 0x thawed) [%] | Freeze-thaw stability, concentration relative to nominal ([2]; QC 100 nM 1x thawed) [%] | Freeze-thaw stability, concentration relative to nominal ([2]; QC 100 nM 10x thawed) [%] | Percentage in feces of the total expected dosage [3] | Urine concentrations after treatment with β-glucuronidase [5] | Plasma peak concentrations after treatment with β-glucuronidase [6] | further results |
| --- | --- | --- | --- | --- | --- | --- | --- | --- | --- | --- | --- | --- | --- | --- | --- | --- | --- | --- | --- |
| COc1cc(/C=C/C(=O)CC(=O)/C=C/c2ccc(O)c(OC)c2)ccc1O [Curcumin, curcumin] | 100 | 76 | 83 | 82 | 100 | 89 | 94 | 91 | 100 | 87 | 90 | 89 | 100 | 99.8 | 96.8 | roughly 21.7% | increase | increase | Phosphorylation levels of ERK and STAT1 (SW620 cells): significantly downregulated; Anecdotal beneficial effect, treated patients (pancreatic cancer): two out of 21; ROS concentration [4]: decrease; TNF-α release [4]: decrease |
| demethoxycurcumin [Demethoxy-curcumin] | 100 | 93 | 95 | 87 | 100 | 96 | 100 | 93 | 100 | 91 | 95 | 89 | 100 | 102.2 | 103.1 | 24.7% | increase | increase | – |
| O=C(/C=C/C=C/c1ccc2c(c1)OCO2)N1CCCCC1 [Piperine-135, piperine] | 100 | 77 | 78 | 77 | 100 | 90 | 85 | 90 | 100 | 89 | 85 | 85 | 100 | 101.8 | 101.7 | – | – | – | Increase of bioavailability of curcumin [7]: 154% |
| COc1cc(CCC(=O)CC(=O)CCc2ccc(O)c(OC)c2)ccc1O [Tetrahydrocurcumin] | 100 | 96 | 89 | 88 | 100 | 99 | 93 | 93 | 100 | 94 | 88 | 87 | 100 | 101.0 | 100.0 | – | increase | increase | Presence in feces [3]: No tetrahydrocurcumin was found |
| O=C(/C=C/c1ccc(O)cc1)CC(=O)/C=C/c1ccc(O)cc1 [Bisdemethoxy-curcumin, bisdemethoxycurcumin] | 100 | 90 | 95 | 88 | 100 | 90 | 92 | 89 | 100 | 84 | 84 | 82 | 100 | 100.7 | 97.1 | 13% | increase | increase | – |
